# Laboratory results reported in patent US8084649B2, “Herbicides” (Syngenta Crop Protection, inc., priority 2007, dated 2011).
# Test system: Avena fatua (AVEFA)
# Test: Post-emergence herbicidal activity, glasshouse pot test
# Format: in vivo
# Details: Avena fatua, rate 125 g/ha, evaluated after 14 or 15 days, read-out: Post-emergence activity, AVEFA (100=total damage to plant; 0=no damage to plant)
# How it was run: (§1)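 Plants sown in sterilised standard soil, grown 10 days in glasshouse, then sprayed with aqueous dilution of active ingredient formulated in acetone plus Emulsogen EL/N-methylpyrrolidone/dipropylene glycol monomethyl ether/X-77 solution. Damage scored visually 14 or 15 days after spraying, 0 (none) to 100 (total).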
row,SMILES,pest or weed control at 125 g/ha [%]
1,C=CCCCCCCCCC(=O)OC1=C(c2c(CC)cc(C)cc2CC)C(=O)CC2(CCOCC2)C1 [Compound P47],60
2,CCc1cc(C)cc(CC)c1C1=C(OS(=O)(=O)Cc2ccccc2)CC2(CCOCC2)CC1=O [Compound P26],0
3,CCc1cc(C)cc(CC)c1C1=C(OC(=O)C(C)(C)C)CC2(CCCSC2)CC1=O (stereo not drawn) [Compound P59],0

# Test system: Setaria faberi (SETFA)
# Test: as above
# Format: in vivo
# Details: Setaria faberi, rate 125 g/ha, evaluated after 14 or 15 days, read-out: Post-emergence activity, SETFA (100=total damage to plant; 0=no damage to plant)
# How it was run: as §1
row,SMILES,pest or weed control at 125 g/ha [%]
1,C=CCCCCCCCCC(=O)OC1=C(c2c(CC)cc(C)cc2CC)C(=O)CC2(CCOCC2)C1 [Compound P47],60
2,CCc1cc(C)cc(CC)c1C1=C(OS(=O)(=O)Cc2ccccc2)CC2(CCOCC2)CC1=O [Compound P26],0
3,CCc1cc(C)cc(CC)c1C1=C(OC(=O)C(C)(C)C)CC2(CCCSC2)CC1=O (stereo not drawn) [Compound P59],60

# Test system: Alopecurus myosuroides (ALOMY)
# Test: as above
# Format: in vivo
# Details: Alopecurus myosuroides, rate 125 g/ha, evaluated after 14 or 15 days, read-out: Post-emergence activity, ALOMY (100=total damage to plant; 0=no damage to plant)
# How it was run: as §1
row,SMILES,pest or weed control at 125 g/ha [%]
1,C=CCCCCCCCCC(=O)OC1=C(c2c(CC)cc(C)cc2CC)C(=O)CC2(CCOCC2)C1 [Compound P47],70
2,CCc1cc(C)cc(CC)c1C1=C(OS(=O)(=O)Cc2ccccc2)CC2(CCOCC2)CC1=O [Compound P26],10
3,CCc1cc(C)cc(CC)c1C1=C(OC(=O)C(C)(C)C)CC2(CCCSC2)CC1=O (stereo not drawn) [Compound P59],40

# Test system: Lolium perenne (LOLPE)
# Test: as above
# Format: in vivo
# Details: Lolium perenne, rate 125 g/ha, evaluated after 14 or 15 days, read-out: Post-emergence activity, LOLPE (100=total damage to plant; 0=no damage to plant)
# How it was run: as §1
row,SMILES,pest or weed control at 125 g/ha [%]
1,C=CCCCCCCCCC(=O)OC1=C(c2c(CC)cc(C)cc2CC)C(=O)CC2(CCOCC2)C1 [Compound P47],50
2,CCc1cc(C)cc(CC)c1C1=C(OS(=O)(=O)Cc2ccccc2)CC2(CCOCC2)CC1=O [Compound P26],0
3,CCc1cc(C)cc(CC)c1C1=C(OC(=O)C(C)(C)C)CC2(CCCSC2)CC1=O (stereo not drawn) [Compound P59],20

# Test system: Echinochloa crus-galli (ECHCG)
# Test: as above
# Format: in vivo
# Details: Echinochloa crus-galli, rate 125 g/ha, evaluated after 14 or 15 days, read-out: Post-emergence activity, ECHCG (100=total damage to plant; 0=no damage to plant)
# How it was run: as §1
row,SMILES,pest or weed control at 125 g/ha [%]
1,C=CCCCCCCCCC(=O)OC1=C(c2c(CC)cc(C)cc2CC)C(=O)CC2(CCOCC2)C1 [Compound P47],70
2,CCc1cc(C)cc(CC)c1C1=C(OS(=O)(=O)Cc2ccccc2)CC2(CCOCC2)CC1=O [Compound P26],0
3,CCc1cc(C)cc(CC)c1C1=C(OC(=O)C(C)(C)C)CC2(CCCSC2)CC1=O (stereo not drawn) [Compound P59],30

# Test system: Digitaria sanguinalis (DIGSA)
# Test: as above
# Format: in vivo
# Details: Digitaria sanguinalis, rate 125 g/ha, evaluated after 14 or 15 days, read-out: Post-emergence activity, DIGSA (100=total damage to plant; 0=no damage to plant)
# How it was run: as §1
row,SMILES,pest or weed control at 125 g/ha [%]
1,C=CCCCCCCCCC(=O)OC1=C(c2c(CC)cc(C)cc2CC)C(=O)CC2(CCOCC2)C1 [Compound P47],70
2,CCc1cc(C)cc(CC)c1C1=C(OS(=O)(=O)Cc2ccccc2)CC2(CCOCC2)CC1=O [Compound P26],10
3,CCc1cc(C)cc(CC)c1C1=C(OC(=O)C(C)(C)C)CC2(CCCSC2)CC1=O (stereo not drawn) [Compound P59],80

# Test system: Avena fatua (AVEFA)
# Test: Pre-emergence herbicidal activity, glasshouse pot test
# Format: in vivo
# Details: Avena fatua, 480 h, rate 500 g/ha, evaluated after 20 days, read-out: Pre-emergence activity, AVEFA (100=total damage to plant; 0=no damage to plant)
# How it was run: (§2)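 Visual damage score 0–100 (100 = plant totally killed), taken 20 days after treatment. Spray was applied to pots of sterilised standard soil one day post-sowing, using an aqueous solution of compound in acetone and a surfactant/solvent blend (Emulsogen EL, NMP, DPGME, X-77).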
row,SMILES,pest or weed control at 500 g/ha [%]
1,C=CCCCCCCCCC(=O)OC1=C(c2c(CC)cc(C)cc2CC)C(=O)CC2(CCOCC2)C1 [Compound P47],100
2,CCc1cc(C)cc(CC)c1C1=C(OS(=O)(=O)Cc2ccccc2)CC2(CCOCC2)CC1=O [Compound P26],80
3,CCc1cc(C)cc(CC)c1C1=C(OC(=O)C(C)(C)C)CC2(CCCSC2)CC1=O (stereo not drawn) [Compound P59],10

# Test system: Setaria faberi (SETFA)
# Test: as above
# Format: in vivo
# Details: Setaria faberi, 480 h, rate 500 g/ha, evaluated after 20 days, read-out: Pre-emergence activity, SETFA (100=total damage to plant; 0=no damage to plant)
# How it was run: as §2
row,SMILES,pest or weed control at 500 g/ha [%]
1,C=CCCCCCCCCC(=O)OC1=C(c2c(CC)cc(C)cc2CC)C(=O)CC2(CCOCC2)C1 [Compound P47],100
2,CCc1cc(C)cc(CC)c1C1=C(OS(=O)(=O)Cc2ccccc2)CC2(CCOCC2)CC1=O [Compound P26],70
3,CCc1cc(C)cc(CC)c1C1=C(OC(=O)C(C)(C)C)CC2(CCCSC2)CC1=O (stereo not drawn) [Compound P59],70

# Test system: Alopecurus myosuroides (ALOMY)
# Test: as above
# Format: in vivo
# Details: Alopecurus myosuroides, 480 h, rate 500 g/ha, evaluated after 20 days, read-out: Pre-emergence activity, ALOMY (100=total damage to plant; 0=no damage to plant)
# How it was run: as §2
row,SMILES,pest or weed control at 500 g/ha [%]
1,C=CCCCCCCCCC(=O)OC1=C(c2c(CC)cc(C)cc2CC)C(=O)CC2(CCOCC2)C1 [Compound P47],100
2,CCc1cc(C)cc(CC)c1C1=C(OS(=O)(=O)Cc2ccccc2)CC2(CCOCC2)CC1=O [Compound P26],80
3,CCc1cc(C)cc(CC)c1C1=C(OC(=O)C(C)(C)C)CC2(CCCSC2)CC1=O (stereo not drawn) [Compound P59],20

# Test system: Lolium perenne (LOLPE)
# Test: as above
# Format: in vivo
# Details: Lolium perenne, 480 h, rate 500 g/ha, evaluated after 20 days, read-out: Pre-emergence activity, LOLPE (100=total damage to plant; 0=no damage to plant)
# How it was run: as §2
row,SMILES,pest or weed control at 500 g/ha [%]
1,C=CCCCCCCCCC(=O)OC1=C(c2c(CC)cc(C)cc2CC)C(=O)CC2(CCOCC2)C1 [Compound P47],100
2,CCc1cc(C)cc(CC)c1C1=C(OS(=O)(=O)Cc2ccccc2)CC2(CCOCC2)CC1=O [Compound P26],90
3,CCc1cc(C)cc(CC)c1C1=C(OC(=O)C(C)(C)C)CC2(CCCSC2)CC1=O (stereo not drawn) [Compound P59],10

# Test system: Echinochloa crus-galli (ECHCG)
# Test: as above
# Format: in vivo
# Details: Echinochloa crus-galli, 480 h, rate 500 g/ha, evaluated after 20 days, read-out: Pre-emergence activity, ECHCG (100=total damage to plant; 0=no damage to plant)
# How it was run: as §2
row,SMILES,pest or weed control at 500 g/ha [%]
1,C=CCCCCCCCCC(=O)OC1=C(c2c(CC)cc(C)cc2CC)C(=O)CC2(CCOCC2)C1 [Compound P47],100
2,CCc1cc(C)cc(CC)c1C1=C(OS(=O)(=O)Cc2ccccc2)CC2(CCOCC2)CC1=O [Compound P26],40
3,CCc1cc(C)cc(CC)c1C1=C(OC(=O)C(C)(C)C)CC2(CCCSC2)CC1=O (stereo not drawn) [Compound P59],50

# Test system: Digitaria sanguinalis (DIGSA)
# Test: as above
# Format: in vivo
# Details: Digitaria sanguinalis, 480 h, rate 500 g/ha, evaluated after 20 days, read-out: Pre-emergence activity, DIGSA (100=total damage to plant; 0=no damage to plant)
# How it was run: as §2
row,SMILES,pest or weed control at 500 g/ha [%]
1,C=CCCCCCCCCC(=O)OC1=C(c2c(CC)cc(C)cc2CC)C(=O)CC2(CCOCC2)C1 [Compound P47],100
2,CCc1cc(C)cc(CC)c1C1=C(OS(=O)(=O)Cc2ccccc2)CC2(CCOCC2)CC1=O [Compound P26],60
3,CCc1cc(C)cc(CC)c1C1=C(OC(=O)C(C)(C)C)CC2(CCCSC2)CC1=O (stereo not drawn) [Compound P59],100
